Test results taken from US20200197355A1, “METHODS, COMPOSITIONS AND CONTAINERS FOR REDUCING SOLID FORM QUERCETIN DEGRADATION AND 2-(3,4-DIHYDROXYBENZOYLOXY)-4,6-DIHYDROXYBENZOIC ACID TOXIC BYPRODUCTS THEREOF” (PUBLIC JOINT STOCK COMPANY "SCIENTIFICINDUSTRIALCENTRE …, priority 2018, published 2020).
Values after ≈ are worked out from the molar mass of the structure shown.

Experiments:
[1] = Toxicity of DB-DBA, CellTiter 96 AQueous One Solution cell viability assay, 72 h; format: cell-based, human; conditions: human, MDA-MB231 breast cancer cells, 72 h
Method: (§1) Toxicity of DB-DBA (2-(3,4-dihydroxybenzoyloxy)-4,6-dihydroxybenzoic acid) was assessed in 96-well plates (Thermofisher, Walthman, Mass.) on 1×10^3 MDA-MB231 human breast cancer cells/well. DB-DBA was diluted to concentrations from 500 to 20 ug/ml. The plate was incubated at 37° C. for 72 h. Cell viability was measured in a CellTiter 96® AQueous One Solution Cell Proliferation Assay (Promega, Madison, Wis.), according to the manufacturer's protocol.

[2] = tested on: MDA-MB231 human breast cancer cells; assay: as above; format: cell-based; conditions: Homo sapiens, MDA-MB-231; MDA-MB231, 72 h, 37° C.
Method: as §1

[3] = humans, cited from earlier work
[4] = tested on: retinal pigmented epithelial cells (ARPE-19); conditions: cited from earlier work
[5] = tested on: human lymphoblastoid TK6 cells; conditions: cited from earlier work
[6] = tested on: human lymphoblastoid cell line K562; conditions: cited from earlier work
[7] = tested on: human lymphoblastoid TK6 cells; conditions: cited from earlier work; remark: listed apart in the source

For `O=C(Oc1cc(O)cc(O)c1C(=O)O)c1ccc(O)c(O)c1` [DB-DBA, 2-(3,4-dihydroxybenzoyloxy)-4,6-dihydroxybenzoic acid], which viability at 72 h, 20 microgram/ml ([1]; DB-DBA 20 microgram/ml) is on record?
The viability at 72 h, 20 microgram/ml was 95%.

And the viability at 72 h, 50 microgram/ml ([1]; DB-DBA 50 microgram/ml)?
The viability at 72 h, 50 microgram/ml was 62%.

What about the viability at 72 h, 100 microgram/ml ([1]; DB-DBA 100 microgram/ml) of the same compound?
Its viability at 72 h, 100 microgram/ml is 41%.

What about the viability at 72 h, 250 microgram/ml ([1]; DB-DBA 250 microgram/ml) of the same compound?
The viability at 72 h, 250 microgram/ml was 19%.

What about the viability at 72 h, 500 microgram/ml ([1]; DB-DBA 500 microgram/ml) of the same compound?
The viability at 72 h, 500 microgram/ml was 10%.

What about the IC50 [2] of the same compound?
The IC50 was 75 µg/mL (≈ 245 µM).

For `O=c1c(O)c(-c2ccc(O)c(O)c2)oc2cc(O)cc(O)c12` [quercetin, 2-(3,4-dihydroxyphenyl)-3,5,7-trihydroxy-4H-chromen-4-one], which elimination half-life ([3]; after ingestion in foods or supplements) is on record?
The elimination half-life was 1 to 2 h.

And the bioavailability [3]?
Its bioavailability is 0-50%.

With `O=C(O)c1cc(O)c(O)c(OC(=O)c2cc(O)c(O)c(O)c2)c1` [DGA, Digallic acid] as the compound, how does the “IC50 (cytotoxicity)” value [4] read?
Its value is 47 microgram/ml.

What about the “IC50 by MTT assay” value [5] of the same compound?
The value was 8.5 microgram/ml.

What about the “concentrations causing DNA fragmentation” value [6] of the same compound?
Its value is 200-800 microgram/ml.

What about the “concentrations causing DNA fragmentation, caspase-3/8 activation and PARP cleavage” value [7] of the same compound?
The value was 2.5-10 microgram/ml.
